The source of these data is patent publication US20250235543A1, “MODIFIED PROTEINS AND PROTEIN DEGRADERS” (Cullgen (Shanghai), Inc., priority 2021, published 2025).

Format in all cases: cell-based
The test system of assay [1] is cyclin D1. As to the kind of experiment: Cyclin D1 percentage degradation in Calu-1 cells (immunoblotting). The conditions noted are these: 200 nM, 16 hours. The gist of the method:
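Cells were rinsed once in cold PBS and lysed in cold RIPA buffer containing protease and phosphatase inhibitors, with gentle agitation at 4° C. for 30 min. Lysates were spun at 13,000 rpm for 10 min at 4° C., protein was measured by BCA, and samples were boiled in Laemmli buffer at 99° C. for 5 min before SDS-PAGE immunoblotting.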
Background: Immunoblotting shows a protein as a band on a membrane.

The next assay relates to MDA-MB-468. As to the kind of experiment: Cell viability assay, MDA-MB-468. Particulars: Homo sapiens, 72 h; MDA-MB-468, TNBC, 3 days; read-out: Cellular Anti-proliferation activity (IC50). As to the method: (§1) Cells were treated with CDK4/6 inhibitors palbociclib, ribociclib, or abemaciclib, or heterobifunctional compounds CPD-002 or CPD-031 following a 9-point serial dilution for 3 days.
(§2) Cells were seeded at a density of 2,000-5,000 cells per well in 96-well assay plates and treated with test compounds following a 10-point serial dilution for 3-6 days. Cell viability was determined using the CellTiter-Lumi assay kit according to the manufacturer's instructions. The dose-response curves were determined and IC50 values were calculated using the GraphPad Prism software following a nonlinear regression (least squares fit) method. Data presented was mean±standard deviation (SD) unless otherwise indicated.

In assay [2] the test system is cyclin D1, cyclin D2, cyclin D3, CDK4 and CDK6. As to the kind of experiment: Immunoblotting of cyclin D and CDK4/6 protein levels in Calu-1 cells. The conditions noted are these: for cyclin D degradation after pretreatment with MG-132, MLN4924 or TAK-243: 2 hours pre-treatment, then 500 nM CPD-002, 500 nM CPD-004 or 100 nM CPD-031 for 4 h or 2 h; for time course of cyclin D1, cyclin D2 and cyclin D3 protein level reduction: CPD-002 at 500 nM, CPD-031 at 100 nM; for cyclin D1, cyclin D2, cyclin D3, CDK4 and CDK6 protein levels: indicated concentrations, 16 hours. Here is the method: Calu-1 (FIG. 2A) or BT-549 (FIG. 2B) cells were treated with CPD-002, CPD-004, or palbociclib at indicated concentrations for 16 hours.
Calu-1 cells were treated with CPD-031 at indicated concentrations for 16 hours.
Calu-1 cells were treated with CPD-002 or CPD-031 at 500 nM or 100 nM, respectively for indicated period of time.
Calu-1 cells were pre-treated with DMSO, 20 μM MG-132 (MG), 5 μM MLN4924 (MLN) or 1 μM TAK-243 (TAK) for 2 hours, and subsequently incubated with 500 nM CPD-002, 500 nM CPD-004, or 100 nM CPD-031 for another 4 h or 2 h prior to immunoblotting (FIG. 5A-5B).
Calu-1 cells were treated with a dose range of negative control compounds CPD-042 or CPD-049 for 16 hours (FIG. 6A-6B).
Calu-1 cells were treated with reference compounds CP-10 or BSJ-03-123 at indicated concentrations for 8 hours.
(§3) Cultured cells were washed with cold PBS once and lysed in cold RIPA buffer supplemented with protease inhibitors and phosphatase inhibitors (Beyotime Biotechnology). The solutions were then incubated at 4° C. for 30 min with gentle agitation to fully lysed cells. Cell lysates were centrifuged at 13,000 rpm for 10 min at 4° C. and pellets were discarded. Total protein concentrations in the lysates were determined following BCA assays (Beyotime Biotechnology). Cell lysates were mixed with Laemmli loading buffer and heated at 99° C. for 5 min. Proteins were resolved on SDS-PAGE and visualized using Western ECL Substrate kits on a ChemiDoc MP Imaging system (Bio-Rad). Protein bands were quantitated using the Image Lab software provided by Bio-Rad.

Assay [3] relates to cyclin D1, cyclin D2, cyclin D3. As to the kind of experiment: Immunoblot of cyclin D protein levels in Calu-1 (and BT-549) cells. Particulars: for cyclin D downregulation effect after pre-treatment with MG-132, MLN4924 or TAK-243: proteasome, cullin E3 ligase or UAE inhibitor pre-treatment; for DC50 / reduction of cyclin D1, cyclin D2, and cyclin D3 protein levels: immunoblot, dose range; for DC50: 16 hours treatment; for reduction of cyclin D1, cyclin D2, and cyclin D3 protein levels: Calu-1 / BT-549 cells, 16 hours. Here is the method: (§4) Specific exemplary heterobifunctional compounds were characterized in Calu-1, BT-549 and other cells. Cells that express cyclin D1-3 and CDK4/6 proteins were treated with heterobifunctional compounds disclosed herein at indicated concentrations for 16 hours. Cells were collected, lysed and subject to immunoblotting using an antibody specific to cyclin D1, cyclin D2, cyclin D3, CDK4, CDK6 or phosphorylated R^b proteins. Tubulin or GAPDH was used as the loading control. DMSO treatment was used as the negative control.
(§5) In a time-course study, Calu-1 cells were treated with 500 nM CPD-002, or 100 nM CPD-031 for indicated period of time prior to immunoblotting (FIG. 4A-4B).
(§6) The heterobifunctional compound-mediated degradation was dependent on the ubiquitin-proteasome system and cullin E3 ligase. […] In addition, DDB1 E3 ligase was critical for the degrader-induced cyclin D downregulation. Depletion of DDB1 using CRISPR-Cas9 technology attenuated the cyclin D degradation induced by CPD-031 (FIG. 5C).
To verify that heterobifunctional compound-mediated degradation is dependent on the binding to CDK4-cyclin D complex, we designed three negative control compounds, CPD-042, CPD-049 and CPD-380, which are derived from CPD-002 CPD-031 and CPD-343, respectively. These three control compounds bear the same DDB1 ligand and linker as their corresponding active heterobifunctional compounds but with modified warheads to impair the binding of the control compounds to CDK4. […] However, the binding to CDK4 is not sufficient for cyclin D degradation. Two cereblon (CRBN)-recruiting reference heterobifunctional compounds, CP-10 (Su, J Med Chem, 2019; CAS No.: 2366268-80-4) and BSJ-03-123 (Brand, Cell Chem Biol, 2019; CAS No.: 2361493-16-3) were analyzed in Calu-1 cells.

In the next assay the test system is Hs578T. As to the kind of experiment: Cell viability assay, Hs578T. Particulars: Homo sapiens, Hs-578T, 72 h, TNBC, 3 days, read-out: Cellular Anti-proliferation activity (IC50). As to the method: as §1, §2
A further assay concerns CDK4, CDK6. As to the kind of experiment: Immunoblot of CDK4 and CDK6 protein levels in Calu-1 cells. The conditions noted are these: 500 nM CPD-002. Here is the method: as §4, §5
To verify that heterobifunctional compound-mediated degradation is dependent on the binding to CDK4-cyclin D complex, we designed three negative control compounds, CPD-042, CPD-049 and CPD-380, which are derived from CPD-002 CPD-031 and CPD-343, respectively. These three control compounds bear the same DDB1 ligand and linker as their corresponding active heterobifunctional compounds but with modified warheads to impair the binding of the control compounds to CDK4. […] Two cereblon (CRBN)-recruiting reference heterobifunctional compounds, CP-10 (Su, J Med Chem, 2019; CAS No.: 2366268-80-4) and BSJ-03-123 (Brand, Cell Chem Biol, 2019; CAS No.: 2361493-16-3) were analyzed in Calu-1 cells.

In assay [4] the test system is cyclin D1. Description: Cyclin D1 degradation in parental and DDB1 knockout Hs578T cells. Particulars: dose range, 4 hours. As to the method: Parental and DDB1 knockout Hs578T cells were treated with a dose range of CPD-031 for 4 hours (FIG. 5C).
The procedures for CRISPR-Cas9 mediated knock-out followed the previously published protocols (Ran et al., 2013). The sgRNA targeting human DDB1 (sgRNA sequence: […]) (SEQ ID NO: 1) was designed using the online CRISPR Design Tool (chopchop.cbu.uib.no/), and constructed into CRISPR-Cas9 vector, pLentiCRISPR V2 (Addgene #52961). Lentivirus was produced in HEK293T cells by co-transfecting pLentiCRISPR construct with packing vectors. Hs578T cells stably expressing Cas9 enzyme and sgRNA were established by lentivirus transduction, selected, and maintained in medium containing […] puromycin.
as §3, with “Proteins were resolved on SDS-PAGE and visualized using Western ECL Substrate kits on a ChemiDoc MP Imaging system (Bio-Rad).” left out

In assay [5] the test system is cyclin D1. As to the kind of experiment: Immunoblot of cyclin D1 in parental or DDB1 knockout Hs578T cells. The conditions noted are these: parental vs DDB1 knockout Hs578T cells, 4 hours. As to the method:
FIG. 5 show immunoblots of cyclin D1, cyclin D2 and cyclin D3 proteins expressed by Calu-1 cells after treatment with heterobifunctional compounds CPD-002 and CPD-004 (A), or CPD-031 (B) in the presence or absence of MLN4924 (MLN), MG-132 (MG), or TAK-243 (TAK), and immunoblots of cyclin D1 proteins expressed in parental or DDB1 knockout Hs578T cells after treatment with heterobifunctional compound CPD-031 at indicated concentrations for 4 hours (C).
as §6

[6] abbreviates: time-course, Calu-1 cells, 500 nM CPD-002.

For `CC(=O)c1c(C)c2cnc(Nc3ccc(N4CCN(CC(=O)NCCOCCOCCOCCOCCOCCNc5ccc(C(=O)Nc6ncc(C)s6)c(C)c5)CC4)cn3)nc2n(C2CCCC2)c1=O` [CPD-002, 4-((1-(4-(6-((6-Acetyl-8-cyclopentyl-5-methyl-7-oxo-7,8-dihydropyrido[2,3-d]pyrimidin-2-yl)amino)pyridin-3-yl)piperazin-1-yl)-2-oxo-6,9,12,15,18-pentaoxa-3-azaicosan-20-yl)amino)-2-methyl-N-(5-methylthiazol-2-yl)benzamide], the “CyclinD1 Degradation (200 nM)” value in the assay on cyclin D1 [1] was “A (protein percentage degradation >=80%)”. For the same compound, the IC50 in the assay on MDA-MB-468 was 1.48 µM. Besides, in assay [2], the “cyclin D degradation after pretreatment with MG-132, MLN4924 or TAK-243” value is “diminished the cyclin D degradation effect”; the “time course of cyclin D1, cyclin D2 and cyclin D3 protein level reduction” value is “significantly reduced as early as one hour following treatment”; the “cyclin D1, cyclin D2, cyclin D3, CDK4 and CDK6 protein levels” value is “reduced cyclin D1, cyclin D2, cyclin D3, CDK4 and CDK6 protein levels in a concentration-dependent manner”. The “cyclin D downregulation effect after pre-treatment with MG-132, MLN4924 or TAK-243” value in assay [3] (Calu-1 cells) is “totally diminished”. For the same compound, in assay [3], the DC50 was less than 0.05 µM; the “reduction of cyclin D1, cyclin D2, and cyclin D3 protein levels” value is reported as “particularly effective”. Also, in assay [3] (setting [6]), the “time to complete degradation of cyclin D proteins” value is no more than 2 h and the “time to significant degradation of cyclin D proteins” value is no more than 0.5 h. The IC50 with Hs578T was determined as 0.215 µM. Also, in the assay on CDK4, CDK6, the “degradation of CDK4 and CDK6 relative to cyclin D, time-course” value is “occurred much slower”.

Turning to `CC(=O)c1c(C)c2cnc(Nc3ccc(N4CCN(CC(=O)NCCOCCOCCOCCOCCOCCNc5ccc(C(=O)Nc6nc(C)c(C)s6)c(C)c5)CC4)cn3)nc2n(C2CCCC2)c1=O` [CPD-031, 4-((1-(4-(6-((6-Acetyl-8-cyclopentyl-5-methyl-7-oxo-7,8-dihydropyrido[2,3-d]pyrimidin-2-yl)amino)pyridin-3-yl)piperazin-1-yl)-2-oxo-6,9,12,15,18-pentaoxa-3-azaicosan-20-yl)amino)-N-(4,5-dimethylthiazol-2-yl)-2-methylbenzamide], in the assay on cyclin D1 [1], the “CyclinD1 Degradation (200 nM)” value is “A (protein percentage degradation >=80%)”. Also, the “cyclin D1 degradation in DDB1 knockout versus parental cells” value in the assay with cyclin D1 [4] was “partially compromised by depletion of DDB1 E3 ligase”. Also, in assay [2], the “cyclin D degradation after pretreatment with MG-132, MLN4924 or TAK-243” value is reported as “diminished the cyclin D degradation effect”; the “time course of cyclin D1, cyclin D2 and cyclin D3 protein level reduction” value is “significantly reduced as early as one hour following treatment”; the “cyclin D1, cyclin D2, cyclin D3, CDK4 and CDK6 protein levels” value was “downregulated the protein levels of cyclin D1, cyclin D2, cyclin D3, CDK4, CDK6, and downstream phosphorylated Rb in a concentration-dependent manner”. Moreover, the “cyclin D3 versus cyclin D1 and D2 degradation, time-course” value in assay [3] (Calu-1 cells, 100 nM CPD-031) is “slower cyclin D3 degradation compared to cyclin D1 and D2 degradation”. Also, the “cyclin D downregulation effect after pre-treatment with MG-132, MLN4924 or TAK-243” value in assay [3] (Calu-1 cells) is on record as “totally diminished”. Besides, in assay [3], the DC50 was less than 0.02 µM; the “reduction of cyclin D1, cyclin D2, and cyclin D3 protein levels” value was “particularly effective”. In the assay on Hs578T, the IC50 was 0.038 µM. Besides, the “cyclin D degradation after depletion of DDB1 (CRISPR-Cas9)” value with cyclin D1 [5] is recorded as “attenuated”.
